From publication PMC8233831, “On the Inhibitability of Natural Products Isolated from Tetradium ruticarpum towards Tyrosine Phosphatase 1B (PTP1B) and α-Glucosidase (3W37): An In Vitro and In Silico Study” (Molecules, 2021)
Where two headings read alike, the source gives them in different places.

Tests used:
nitric oxide production = test system: nitric oxide production; parameters: method as in PMID 26753624; settings: cited from earlier work
α-glucosidase = experiment: α-Glucosidase inhibition assay (pNPG substrate); format: biochemical; settings: means ± SD of three replicates
Protocol: The inhibitory activity of α-glucosidase was determined according to the modified method with a readily available enzyme. In a typical procedure, α-glucosidase (0.1 U/mL, Wako) was dissolved in 100 mM sodium phosphate buffer (pH 6.8) and used as an enzyme solution. A total of 1 mM p-Nitrophenyl-α-D-glucopyranoside (pNPG) in the same buffer (pH 6.8) was used as a substrate solution. […] After substrate solution (95 μL) was added, the sample solution was incubated for another 10 min at 37 °C incubator. Enzymatic activity was quantified by measuring absorbance at 405 nm using an enzyme-linked immunosorbent assay (ELISA) microplate reader (D.I Biotech Ltd., Seoul, Korea).

[1] = test system: experimental liver cancer cells in rats; parameters: method as in ref 32 = [32]; 32. Bai J.W. Zhang Y. Yang M.J. Effects of schinifoline on cytoskeleton of experimental hepatoma in rats observed by whole mount cell transmission electron microscopy Beijing Zhongyiyao Daxue Xuebao 2; settings: by influencing cytoskeleton; cited from earlier work
[2] = test system: Jurkat T cells clone E6.1; parameters: method as in doi:10.5012/bkcs.2010.31.04.1081; settings: Jurkat T cells clone E6.1, MTT method; cited from earlier work
[3] = test system: Staphylococcus epidermidis (ATCC12228); parameters: method as in PMID 23651559; settings: cited from earlier work
[4] = test system: Staphyloccocus aureus (ATCC25923); parameters: method as in PMID 23651559; settings: cited from earlier work
[5] = test system: experimental hepatocarcinogenesis; parameters: method as in ref 33 = [33]; 33. Bai J.W. Zhang Y. Wu J. Flow cytometric analysis of the schinifoline inhibition on rat hepatoma cell induced by DEN Beijing Zhongyiyao Daxue Xuebao 1999 22 34 35; settings: by inhibiting hepatoma cell's DNA synthesis; cited from earlier work
[6] = test system: Bacillus subtilis (ATCC6633); parameters: method as in PMID 23651559; settings: cited from earlier work
Candida albicans = test system: Candida albicans; parameters: method as in PMID 33971509; settings: cited from earlier work
BEL7403 = test system: BEL7403; parameters: method as in PMID 23651559; settings: BEL7403, MTT method; cited from earlier work
Hela = test system: Hela; parameters: method as in PMID 23651559; settings: MTT method; cited from earlier work
A549 cells [7] = test system: A549 cells; parameters: method as in PMID 25470278; settings: cited from earlier work
[8] = target: T1, Protein tyrosine phosphatase 1B (human recombinant) (Homo sapiens, UniProt P18031); experiment: Protein tyrosine phosphatase 1B inhibition assay (p-NPP substrate); format: biochemical; settings: means ± SD of three replicates; read-out: PTP1B IC50
T1 construct: purchased Biomol International LP, Plymouth Meeting, Pennsylvania, PA, USA
T1 sequence (P18031 1-435): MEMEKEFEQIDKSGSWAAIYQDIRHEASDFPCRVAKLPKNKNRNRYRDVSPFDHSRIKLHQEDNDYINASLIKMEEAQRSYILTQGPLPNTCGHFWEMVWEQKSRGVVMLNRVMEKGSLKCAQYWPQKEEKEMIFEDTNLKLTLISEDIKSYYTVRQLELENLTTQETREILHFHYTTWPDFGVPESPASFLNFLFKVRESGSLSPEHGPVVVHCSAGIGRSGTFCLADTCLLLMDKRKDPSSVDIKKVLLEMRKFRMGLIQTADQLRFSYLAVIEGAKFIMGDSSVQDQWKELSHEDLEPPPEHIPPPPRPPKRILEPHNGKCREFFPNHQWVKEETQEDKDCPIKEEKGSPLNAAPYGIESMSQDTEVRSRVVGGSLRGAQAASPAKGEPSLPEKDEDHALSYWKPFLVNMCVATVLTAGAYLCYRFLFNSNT
Protocol: Protein tyrosine phosphatase 1B (human recombinant), i.e., PTP1B, was purchased from Biomol International LP, Plymouth Meeting, Pennsylvania, PA, USA, and the inhibitory activities of the tested samples were evaluated using the method as described. In a typical procedure, 0.05–0.1 μg of PTP1B (BIOMOL International L.P., Plymouth Meeting, Pennsylvania, PA, USA) and 4 mM p-NPP in a buffer containing 1 mM dithiothreitol, 0.1 M NaCl, 1 mM EDTA, and 50 mM citrate (pH 6.0), with or without test compounds, were added, with 100 μL final volume to each of the 96 wells. After the reaction mixture was incubated at 37 °C for 30 min, 10 M NaOH was added to quench the reaction. PTP1B enzyme activity was determined by the amount of produced p-nitrophenol at 405 nm. The nonenzymatic hydrolysis of the substrate was corrected by measuring the control, which contained no PTP1B enzyme.

A549 cells [9] = test system: A549 cells; parameters: method as in PMID 25470278; settings: applied before 60Co γ-irradiation; cited from earlier work
BEL7402 = test system: BEL7402; parameters: method as in PMID 23651559; settings: BEL7402, MTT method; cited from earlier work
HepG2 = test system: HepG2; parameters: method as in PMID 23651559; settings: HepG2, MTT method; cited from earlier work
aldose reductase = test system: aldose reductase; parameters: method as in PMID 17498942; settings: cited from earlier work
sorbitol accumulation = test system: sorbitol accumulation; parameters: method as in PMID 17498942; settings: at 100 μM; cited from earlier work
[10] = test system: obese/diabetic KK-Ay mice; parameters: method as in PMID 24391749; settings: cited from earlier work
[11] = test system: peroxisome proliferator-activated receptors (PPARs); parameters: method as in PMID 30827999; settings: cited from earlier work

CCCCCCCc1cc(=O)c2ccccc2n1C [Compound 1, 2-heptyl-1-methylquinolin-4-one]
in vitro inhibitory effect on nitric oxide production (nitric oxide production): did not show in vitro inhibitory effect
IC50 (α-glucosidase): 92.1 ± 0.8 µM
treatment of experimental liver cancer cells in rats [1]: can be used to treat experimental liver cancer cells in rats
cytotoxicity [2]: no cytotoxicity
antibacterial activity [3]: no antibacterial activity
antibacterial activity [4]: no antibacterial activity
treatment of experimental hepatocarcinogenesis [5]: can treat experimental hepatocarcinogenesis
antibacterial activity [6]: no antibacterial activity
effect on negative effects of Candida albicans in vivo (Candida albicans): inhibited the negative effects of Candida albicans in vivo
cytotoxicity (BEL7403): no cytotoxicity
cytotoxicity (Hela): no cytotoxicity
cytotoxicity on A549 cells IC50 (A549 cells [7]; 6 h treatment): 33.7 ± 2.4 µg/mL
cytotoxicity on A549 cells IC50 (A549 cells [7]; 12 h treatment): 21.9 ± 1.9 µg/mL
cytotoxicity on A549 cells IC50 (A549 cells [7]; 24 h treatment): 16.8 ± 2.2 µg/mL
IC50 [8]: 24.3 ± 0.8 µM
radio-sensitivity of A549 cells (A549 cells [9]): enhanced the radio-sensitivity of A549 cells
cytotoxicity (BEL7402): no cytotoxicity
cytotoxicity (HepG2): no cytotoxicity

CC(=CCOc1ccc(C=CCO)cc1)CO [Compound 2, 3-[4-(4-methylhydroxy-2-butenyloxy)-phenyl]-2-propenol]
in vitro inhibitory effect on nitric oxide production (nitric oxide production): did not show in vitro inhibitory effect
IC50 (α-glucosidase): 167.4 ± 1.4 µM
IC50 [8]: 47.7 ± 1.1 µM

CNc1ccccc1C(=O)N1CCc2c([nH]c3ccccc23)C1=O [rhetsinine]
aldose reductase inhibition (aldose reductase): inhibited aldose reductase in a dose-dependent manner
inhibition of sorbitol accumulation (sorbitol accumulation): 79.3%

evodiamine
obesity and insulin resistance [10]: reduced obesity and insulin resistance
activation of PPARs [11]: activate peroxisome proliferator-activated receptors
